# Assay results reported in patent US10919884B2, “Amide compounds for treatment of immune and inflammatory disorders” (Achillion Pharmaceuticals, Inc., priority 2015, dated 2021).
# Target: Human Factor D (Homo sapiens (Human), UniProt P00746)
# Assay: Human Factor D Assay
# Assay type: biochemical
# Details: Human Factor D purified from human serum, 80 nM; substrate Z-L-Lys-SBzl and DTNB 100 μM each; assay of Example 12
# Protocol: Example 12. Human Factor D Assay
# Human Factor D (purified from human serum, Complement Technology, Inc.) at 80 nM final concentration is incubated with test compound at various concentrations for 5 minutes at room temperature in 50 mM Tris, 1 M NaCl, pH 7.5. A synthetic substrate Z-L-Lys-SBzl and DTNB (Ellman's reagent) are added to final concentrations of 100 μM each. Absorbance at 405 nm (A405) is recorded at 30 second intervals for 30 minutes using a microplate spectrophotometer. IC50 values are calculated by nonlinear regression of complement Factor D reaction rates as a function of test compound concentration.
# The assay of Example 12 was used to determine the IC50's of the compounds. Other standard Factor D inhibition assays are also available.
# Chain of Human Factor D (P00746 26-253): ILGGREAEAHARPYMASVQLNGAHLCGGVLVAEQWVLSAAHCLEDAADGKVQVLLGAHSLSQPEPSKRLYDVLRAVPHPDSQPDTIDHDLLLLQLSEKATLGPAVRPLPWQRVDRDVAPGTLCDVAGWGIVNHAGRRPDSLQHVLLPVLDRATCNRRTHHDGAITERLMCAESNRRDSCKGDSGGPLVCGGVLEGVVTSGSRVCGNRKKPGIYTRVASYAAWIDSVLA
row,SMILES,IC50 [µM]
1,"Cc1cccc(NC(=O)[C@@H]2CC=CCN2C(=O)Cn2cc(C(N)=O)c3cc(C(=O)NS(=O)(=O)C4CC4)ccc32)n1 [Compound 5, (S)-N5-(cyclopropylsulfonyl)-1-(2-(6-((6-methylpyridin-2-yl)carbamoyl)-5,6-dihydropyridin-1(2H)-yl)-2-oxoethyl)-1H-indole-3,5-dicarboxamide]",> 10
2,"Cc1cccc(NC(=O)[C@@H]2CC=CCN2C(=O)Cn2cc(C(N)=O)c3cc(NC(=O)N4CCCC(F)(F)C4)ccc32)n1 [Compound 1, (S)-5-(3,3-difluoropiperidine-1-carboxamido)-1-(2-(6-((6-methylpyridin-2-yl)carbamoyl)-5,6-dihydropyridin-1(2H)-yl)-2-oxoethyl)-1H-indole-3-carboxamide]",> 10
3,"Cc1cccc(C[C@H](O)[C@@H]2C[C@@H](F)CN2C(=O)Cn2cc(C(N)=O)c3cc(NC(=O)N4CCCC(F)(F)C4)ccc32)n1 [Compound 3, 5-(3,3-difluoropiperidine-1-carboxamido)-1-(2-((2S,4R)-4-fluoro-2-((S)-1-hydroxy-2-(6-methylpyridin-2-yl)ethyl)pyrrolidin-1-yl)-2-oxoethyl)-1H-indole-3-carboxamide]",> 10
4,"Cc1cccc(NC(=O)[C@@H]2CCC(F)CCN2C(=O)Cn2cc(C(N)=O)c3cc(NC(=O)N4CCCC(F)(F)C4)ccc32)n1 (stereo partly drawn) [Compound 4, 5-(3,3-difluoropiperidine-1-carboxamido)-1-(2-((2S)-5-fluoro-2-((6-methylpyridin-2-yl)carbamoyl)azepan-1-yl)-2-oxoethyl)-1H-indole-3-carboxamide]",> 10
5,"Cc1cccc(C[C@@H](O)[C@H]2C[C@@H](F)CN2C(=O)Cn2cc(C(N)=O)c3cc(NC(=O)N4CCCC(F)(F)C4)ccc32)n1 [Compound 2, 5-(3,3-difluoropiperidine-1-carboxamido)-1-(2-((2R,4R)-4-fluoro-2-((R)-1-hydroxy-2-(6-methylpyridin-2-yl)ethyl)pyrrolidin-1-yl)-2-oxoethyl)-1H-indole-3-carboxamide]",> 10
